The target in the experiment is human GlyT1c transporter (Homo sapiens (Human), UniProt P48067). The experiment is described as follows: Radioligand binding assays using recombinant CHO cell membranes expressing human GlyT1. The settings on record: radioligand binding, human GlyT1c transporter-expressing CHO cell membranes.

These results are taken from patent publication US9656955B2, “Pyrrolidine derivatives, pharmaceutical compositions containing them, and their use in therapy” (AbbVie Deutschland GmbH & Co. KG, priority 2013, dated 2017).

Structures are written as SMILES.

As a reminder, the Ki is the dissociation constant of the complex between target and ligand, obtained from inhibition or displacement.

Chain of human GlyT1c transporter (P48067 whole entry): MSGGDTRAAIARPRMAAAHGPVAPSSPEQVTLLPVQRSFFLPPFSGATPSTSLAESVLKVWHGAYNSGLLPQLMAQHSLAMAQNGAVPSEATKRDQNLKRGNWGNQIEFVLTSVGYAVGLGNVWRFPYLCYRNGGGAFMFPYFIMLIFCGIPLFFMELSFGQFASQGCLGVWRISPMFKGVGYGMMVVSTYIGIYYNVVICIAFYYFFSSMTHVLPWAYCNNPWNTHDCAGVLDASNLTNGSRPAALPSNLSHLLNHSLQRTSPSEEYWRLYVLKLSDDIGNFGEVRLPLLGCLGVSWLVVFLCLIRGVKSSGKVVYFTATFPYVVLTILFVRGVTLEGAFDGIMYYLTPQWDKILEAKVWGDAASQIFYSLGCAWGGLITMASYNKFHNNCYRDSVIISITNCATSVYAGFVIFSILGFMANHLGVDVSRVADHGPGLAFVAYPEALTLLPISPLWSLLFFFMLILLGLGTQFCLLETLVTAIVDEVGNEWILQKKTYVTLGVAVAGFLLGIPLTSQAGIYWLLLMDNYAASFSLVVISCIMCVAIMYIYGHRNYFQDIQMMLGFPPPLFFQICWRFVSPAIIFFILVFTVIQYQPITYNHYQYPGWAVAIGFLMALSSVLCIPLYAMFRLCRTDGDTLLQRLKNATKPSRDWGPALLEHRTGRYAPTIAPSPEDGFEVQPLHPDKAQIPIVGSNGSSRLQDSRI

With `Cc1ncc(S(=O)(=O)N2C[C@H](Nc3ccc(F)c(F)c3)[C@@H](c3ccc(F)cc3)C2)n1C` [Example 757, (3R,4S)—N-(3,4-difluorophenyl)-1-[(1,2-dimethyl-1H-imidazol-5-yl)sulfonyl]-4-(4-fluorophenyl)pyrrolidin-3-amine], the Ki was no more than 10000 nM.

`Cn1cnc(S(=O)(=O)N2C[C@H](Nc3cc(Cl)ccn3)[C@@H](c3ccc(F)cc3)C2)c1` [Example 759, 4-chloro-N-{(3R,4S)-4-(4-fluorophenyl)-1-[(1-methyl-1H-imidazol-4-yl)sulfonyl]pyrrolidin-3-yl}pyridin-2-amine]: the inhibition constant (Ki) is no more than 10 nM.

For the molecule `Cn1cnc(S(=O)(=O)N2C[C@H](Nc3cccc(C4CCNCC4)c3)[C@@H](c3ccccc3)C2)c1` [Example 777, (3R,4S)-1-[(1-methyl-1H-imidazol-4-yl)sulfonyl]-4-phenyl-N-[3-(piperidin-4-yl)phenyl]pyrrolidin-3-amine], the Ki was no less than 10000 nM.

For `Cn1cnc(S(=O)(=O)N2C[C@H](Nc3cc(OCC4CNC4)ncn3)[C@@H](c3ccc(F)cc3)C2)c1` [Example 778, 6-(azetidin-3-ylmethoxy)-N-{(3R,4S)-4-(4-fluorophenyl)-1-[(1-methyl-1H-imidazol-4-yl)sulfonyl]pyrrolidin-3-yl}pyrimidin-4-amine], the Ki was no less than 10000 nM.

Regarding `Cn1cnc(S(=O)(=O)N2C[C@H](Nc3cc(OCC(F)(F)F)c(Cl)cn3)[C@@H](c3ccccc3)C2)c1` [Example 808, 5-chloro-N-{(3R,4S)-1-[(1-methyl-1H-imidazol-4-yl)sulfonyl]-4-phenylpyrrolidin-3-yl}-4-(2,2,2-trifluoroethoxy)pyridin-2-amine], the Ki was no more than 10 nM.

For the molecule `Cn1cnc(S(=O)(=O)N2CC(NCc3ccc(C(F)(F)F)cc3Cl)C([C@@H]3CCCO3)C2)c1` (stereo partly drawn) [Example 823, N-[2-chloro-4-(trifluoromethyl)benzyl]-1-[(1-methyl-1H-imidazol-4-yl)sulfonyl]-4-[(2S)tetrahydrofuran-2-yl]pyrrolidin-3-amine], the Ki is no more than 1000 nM.

With `Cn1cc(S(=O)(=O)N2C[C@H](Nc3ccc(F)c(OC(F)(F)F)c3)[C@@H](c3ccc(F)cc3)C2)nn1` [Example 838, (3R,4S)-4-(4-fluorophenyl)-N-[4-fluoro-3-(trifluoromethoxy)phenyl]-1-[(1-methyl-1H-1,2,3-triazol-4-yl)sulfonyl]pyrrolidin-3-amine], the inhibition constant (Ki) is no more than 10 nM.

With `Cn1cc(S(=O)(=O)N2C[C@H](Nc3cccc(Cl)c3)[C@@H](c3ccc(F)cc3)C2)nn1` [Example 841, (3R,4S)—N-(3-chlorophenyl)-4-(4-fluorophenyl)-1-[(1-methyl-1H-1,2,3-triazol-4-yl)sulfonyl]pyrrolidin-3-amine], the Ki is no more than 10 nM.
